Where a name gives a salt, the structure may show the parent alone.
Experiments:
[1] = biological target: Bile salt export pump (Homo sapiens, UniProt O95342); test: Inhibition of human BSEP overexpressed in Sf9 cell membrane vesicles assessed as uptake of [3H]-taurocholate in presence of ATP measured after 15 to 20 mins by membrane vesicle transport assay; format: ADME, cell-based
[2] = biological target: ATP-binding cassette sub-family C member 3 (Homo sapiens, UniProt O15438); test: Inhibition of human MRP3 overexpressed in Sf9 insect cell membrane vesicles assessed as uptake of [3H]-estradiol-17beta-D-glucuronide in presence of ATP and GSH measured after 10 mins by membrane vesicle transport assay; format: ADME, cell-based
[3] = biological target: T1, ATP-binding cassette sub-family C member 4 (Homo sapiens, UniProt O15439); test: Inhibition of human MRP4 overexpressed in Sf9 cell membrane vesicles assessed as uptake of [3H]-estradiol-17beta-D-glucuronide in presence of ATP and GSH measured after 20 mins by membrane vesicle transport assay; format: ADME, cell-based
T1 sequence (O15439 whole entry): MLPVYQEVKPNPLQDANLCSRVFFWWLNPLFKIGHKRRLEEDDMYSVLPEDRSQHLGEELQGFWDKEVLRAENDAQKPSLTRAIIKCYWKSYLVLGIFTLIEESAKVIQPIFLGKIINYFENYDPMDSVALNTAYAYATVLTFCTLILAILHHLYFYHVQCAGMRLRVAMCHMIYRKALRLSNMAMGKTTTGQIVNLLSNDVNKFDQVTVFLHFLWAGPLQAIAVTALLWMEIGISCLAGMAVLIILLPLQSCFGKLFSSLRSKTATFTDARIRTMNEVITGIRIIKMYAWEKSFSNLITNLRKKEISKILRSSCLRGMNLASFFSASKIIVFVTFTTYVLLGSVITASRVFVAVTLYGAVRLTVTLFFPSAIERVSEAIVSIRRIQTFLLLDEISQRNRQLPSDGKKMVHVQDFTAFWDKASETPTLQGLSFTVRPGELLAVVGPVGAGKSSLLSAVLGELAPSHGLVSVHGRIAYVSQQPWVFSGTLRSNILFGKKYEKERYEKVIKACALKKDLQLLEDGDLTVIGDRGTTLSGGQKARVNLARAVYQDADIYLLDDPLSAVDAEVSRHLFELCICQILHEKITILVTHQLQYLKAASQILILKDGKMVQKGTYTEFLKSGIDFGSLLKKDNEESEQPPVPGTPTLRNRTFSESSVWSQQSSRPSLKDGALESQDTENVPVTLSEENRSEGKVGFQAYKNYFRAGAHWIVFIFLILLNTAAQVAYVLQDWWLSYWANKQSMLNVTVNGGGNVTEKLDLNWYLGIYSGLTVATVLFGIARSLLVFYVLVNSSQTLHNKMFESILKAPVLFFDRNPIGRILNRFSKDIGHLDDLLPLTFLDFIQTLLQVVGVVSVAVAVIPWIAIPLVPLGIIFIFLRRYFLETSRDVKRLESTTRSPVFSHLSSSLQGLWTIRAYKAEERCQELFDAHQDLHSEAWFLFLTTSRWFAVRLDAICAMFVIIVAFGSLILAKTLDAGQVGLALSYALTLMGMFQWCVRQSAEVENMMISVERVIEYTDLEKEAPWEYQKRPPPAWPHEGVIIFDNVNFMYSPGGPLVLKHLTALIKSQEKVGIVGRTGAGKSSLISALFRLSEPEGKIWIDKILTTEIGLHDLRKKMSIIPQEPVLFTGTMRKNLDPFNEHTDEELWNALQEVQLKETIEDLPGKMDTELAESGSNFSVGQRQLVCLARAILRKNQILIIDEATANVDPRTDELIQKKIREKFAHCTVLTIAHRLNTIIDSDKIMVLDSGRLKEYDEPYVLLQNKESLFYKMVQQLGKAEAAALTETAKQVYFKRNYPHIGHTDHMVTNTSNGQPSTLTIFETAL

[4] = biological target: ATP-binding cassette sub-family C member 2 (Homo sapiens, UniProt Q92887); test: Inhibition of human MRP2 overexpressed in Sf9 cell membrane vesicles assessed as uptake of [3H]-estradiol-17beta-D-glucuronide in presence of ATP and GSH measured after 20 mins by membrane vesicle transport assay
Sequence of ATP-binding cassette sub-family C member 2 (Q92887 whole entry): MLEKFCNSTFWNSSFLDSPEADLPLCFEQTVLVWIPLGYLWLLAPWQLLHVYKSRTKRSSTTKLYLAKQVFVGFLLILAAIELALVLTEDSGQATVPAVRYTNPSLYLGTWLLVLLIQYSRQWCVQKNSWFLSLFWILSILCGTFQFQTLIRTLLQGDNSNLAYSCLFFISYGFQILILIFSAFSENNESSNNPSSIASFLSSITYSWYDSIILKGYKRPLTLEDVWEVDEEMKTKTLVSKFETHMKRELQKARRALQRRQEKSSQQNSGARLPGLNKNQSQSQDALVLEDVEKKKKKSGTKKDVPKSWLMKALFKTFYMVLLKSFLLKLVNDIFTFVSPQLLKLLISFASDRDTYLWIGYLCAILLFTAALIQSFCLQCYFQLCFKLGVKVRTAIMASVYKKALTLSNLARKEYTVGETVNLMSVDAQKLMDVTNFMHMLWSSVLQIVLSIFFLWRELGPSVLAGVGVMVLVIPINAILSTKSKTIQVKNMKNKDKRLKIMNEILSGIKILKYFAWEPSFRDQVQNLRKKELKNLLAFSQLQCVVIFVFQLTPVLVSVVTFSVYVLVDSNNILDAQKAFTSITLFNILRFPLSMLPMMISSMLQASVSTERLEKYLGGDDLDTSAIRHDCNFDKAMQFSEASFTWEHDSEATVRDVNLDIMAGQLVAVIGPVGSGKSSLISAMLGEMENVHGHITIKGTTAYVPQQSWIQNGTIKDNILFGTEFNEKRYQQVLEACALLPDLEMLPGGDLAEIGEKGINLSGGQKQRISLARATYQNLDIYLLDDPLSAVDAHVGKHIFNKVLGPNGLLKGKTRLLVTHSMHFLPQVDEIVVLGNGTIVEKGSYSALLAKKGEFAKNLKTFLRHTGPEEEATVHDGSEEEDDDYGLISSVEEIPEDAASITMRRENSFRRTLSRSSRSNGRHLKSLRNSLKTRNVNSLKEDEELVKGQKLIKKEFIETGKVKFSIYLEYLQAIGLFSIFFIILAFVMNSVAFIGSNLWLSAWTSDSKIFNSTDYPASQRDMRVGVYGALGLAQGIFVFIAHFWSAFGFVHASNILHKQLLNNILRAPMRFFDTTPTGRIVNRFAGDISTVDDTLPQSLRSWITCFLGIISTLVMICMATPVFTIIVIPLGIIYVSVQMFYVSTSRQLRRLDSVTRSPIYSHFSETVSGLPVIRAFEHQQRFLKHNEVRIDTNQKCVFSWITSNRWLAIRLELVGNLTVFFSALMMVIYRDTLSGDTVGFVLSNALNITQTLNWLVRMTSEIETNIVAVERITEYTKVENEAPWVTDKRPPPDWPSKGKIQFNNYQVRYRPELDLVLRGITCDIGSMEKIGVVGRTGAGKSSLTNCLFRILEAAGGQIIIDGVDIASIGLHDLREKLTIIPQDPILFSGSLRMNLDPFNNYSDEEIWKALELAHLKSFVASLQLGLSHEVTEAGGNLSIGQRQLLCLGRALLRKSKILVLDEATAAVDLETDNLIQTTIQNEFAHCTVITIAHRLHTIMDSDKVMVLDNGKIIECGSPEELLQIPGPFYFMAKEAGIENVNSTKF

Sequence of ATP-binding cassette sub-family C member 3 (O15438 whole entry): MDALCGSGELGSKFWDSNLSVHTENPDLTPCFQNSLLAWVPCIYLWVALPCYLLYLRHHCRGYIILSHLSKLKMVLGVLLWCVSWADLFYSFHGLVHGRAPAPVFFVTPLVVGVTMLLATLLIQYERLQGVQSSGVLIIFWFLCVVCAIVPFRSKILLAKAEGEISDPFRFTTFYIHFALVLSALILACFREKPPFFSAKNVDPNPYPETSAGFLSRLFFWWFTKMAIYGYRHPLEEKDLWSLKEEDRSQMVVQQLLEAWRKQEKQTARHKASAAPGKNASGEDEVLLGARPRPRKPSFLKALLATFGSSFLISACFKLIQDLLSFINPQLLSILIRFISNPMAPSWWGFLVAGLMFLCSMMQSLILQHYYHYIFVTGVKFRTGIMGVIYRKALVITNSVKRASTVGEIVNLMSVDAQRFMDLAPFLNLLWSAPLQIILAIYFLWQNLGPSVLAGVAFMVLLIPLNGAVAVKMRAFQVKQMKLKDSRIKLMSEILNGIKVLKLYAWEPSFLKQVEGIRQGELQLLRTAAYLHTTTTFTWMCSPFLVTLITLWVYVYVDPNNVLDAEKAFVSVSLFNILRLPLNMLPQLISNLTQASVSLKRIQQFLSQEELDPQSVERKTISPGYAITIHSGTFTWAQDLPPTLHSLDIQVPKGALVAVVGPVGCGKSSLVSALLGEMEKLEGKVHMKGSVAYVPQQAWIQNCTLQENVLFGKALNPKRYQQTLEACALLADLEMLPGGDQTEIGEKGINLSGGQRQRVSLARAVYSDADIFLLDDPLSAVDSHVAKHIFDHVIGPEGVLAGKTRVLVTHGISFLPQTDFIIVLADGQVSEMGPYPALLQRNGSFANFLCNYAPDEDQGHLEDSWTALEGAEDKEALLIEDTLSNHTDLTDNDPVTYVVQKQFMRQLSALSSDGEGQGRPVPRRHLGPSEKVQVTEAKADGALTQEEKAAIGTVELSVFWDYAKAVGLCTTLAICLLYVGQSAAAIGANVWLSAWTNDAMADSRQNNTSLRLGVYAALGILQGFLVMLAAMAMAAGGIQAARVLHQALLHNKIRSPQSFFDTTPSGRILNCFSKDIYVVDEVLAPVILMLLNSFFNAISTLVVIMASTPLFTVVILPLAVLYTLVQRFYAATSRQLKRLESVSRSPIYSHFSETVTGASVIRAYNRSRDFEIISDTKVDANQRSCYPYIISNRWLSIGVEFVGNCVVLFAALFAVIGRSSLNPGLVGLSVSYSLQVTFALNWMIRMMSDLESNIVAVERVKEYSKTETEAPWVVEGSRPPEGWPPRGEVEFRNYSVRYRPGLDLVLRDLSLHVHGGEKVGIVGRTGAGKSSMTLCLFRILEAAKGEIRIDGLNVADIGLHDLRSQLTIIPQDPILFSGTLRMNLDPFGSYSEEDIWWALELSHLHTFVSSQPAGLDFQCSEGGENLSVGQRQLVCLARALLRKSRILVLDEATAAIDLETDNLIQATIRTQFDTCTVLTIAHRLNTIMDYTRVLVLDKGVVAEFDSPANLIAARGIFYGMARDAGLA
Sequence of Bile salt export pump (O95342 whole entry): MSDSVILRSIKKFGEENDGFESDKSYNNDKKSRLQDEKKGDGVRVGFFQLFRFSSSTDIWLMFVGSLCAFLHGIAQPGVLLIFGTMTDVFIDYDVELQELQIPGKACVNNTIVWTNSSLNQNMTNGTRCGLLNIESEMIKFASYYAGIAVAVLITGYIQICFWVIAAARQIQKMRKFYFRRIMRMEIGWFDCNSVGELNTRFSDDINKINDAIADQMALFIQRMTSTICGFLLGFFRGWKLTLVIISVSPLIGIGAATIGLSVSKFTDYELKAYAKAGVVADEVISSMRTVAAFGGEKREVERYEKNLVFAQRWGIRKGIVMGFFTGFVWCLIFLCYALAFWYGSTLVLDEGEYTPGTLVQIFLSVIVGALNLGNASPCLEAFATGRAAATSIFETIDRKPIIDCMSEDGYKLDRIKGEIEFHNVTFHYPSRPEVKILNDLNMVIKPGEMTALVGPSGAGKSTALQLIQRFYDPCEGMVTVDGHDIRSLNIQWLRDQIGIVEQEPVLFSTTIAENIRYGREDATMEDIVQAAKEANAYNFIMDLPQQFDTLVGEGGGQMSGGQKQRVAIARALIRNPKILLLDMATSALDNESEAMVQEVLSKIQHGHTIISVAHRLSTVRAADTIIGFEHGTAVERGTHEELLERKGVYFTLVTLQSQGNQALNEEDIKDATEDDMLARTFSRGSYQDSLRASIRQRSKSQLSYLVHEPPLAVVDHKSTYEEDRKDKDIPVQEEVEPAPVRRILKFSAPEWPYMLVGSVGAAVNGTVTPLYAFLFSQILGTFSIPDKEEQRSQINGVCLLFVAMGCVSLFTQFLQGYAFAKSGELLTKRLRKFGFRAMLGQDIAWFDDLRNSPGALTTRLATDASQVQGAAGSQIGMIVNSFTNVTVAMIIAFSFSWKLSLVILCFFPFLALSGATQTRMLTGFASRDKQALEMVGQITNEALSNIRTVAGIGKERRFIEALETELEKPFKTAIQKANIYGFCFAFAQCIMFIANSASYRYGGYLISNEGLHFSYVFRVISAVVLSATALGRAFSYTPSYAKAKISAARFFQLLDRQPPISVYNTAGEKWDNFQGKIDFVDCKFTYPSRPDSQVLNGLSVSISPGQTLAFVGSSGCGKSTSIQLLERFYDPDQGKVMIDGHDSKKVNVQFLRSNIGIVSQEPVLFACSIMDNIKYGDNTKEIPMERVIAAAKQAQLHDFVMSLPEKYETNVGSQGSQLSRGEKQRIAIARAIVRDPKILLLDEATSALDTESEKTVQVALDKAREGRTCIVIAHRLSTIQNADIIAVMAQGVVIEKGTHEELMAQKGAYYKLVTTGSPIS

| SMILES | IC50 [1] [µM] | IC50 [2] [µM] | IC50 [3] [µM] | IC50 [4] [µM] |
| --- | --- | --- | --- | --- |
| O=C(O)COC(=O)Cc1ccccc1Nc1c(Cl)cccc1Cl [ACECLOFENAC] | 105 | > 133 | > 133 |  |
| CC1=C(CC(=O)O)c2cc(F)ccc2/C1=C\c1ccc([S+](C)[O-])cc1 (stereo not drawn) | > 133 | > 133 | > 133 |  |
| CC(=O)[C@H]1[C@H](C#N)C[C@H]2[C@@H]3CC=C4C[C@@H](O)CC[C@]4(C)[C@H]3CC[C@@]21C [PREGNENOLONE CARBONITRILE] | > 133 | > 133 | > 133 |  |
| C[C@@H](O)[C@H]1C(=O)N2C(C(=O)O)=C(SCCN=CN)C[C@H]12 | > 133 |  |  |  |
| COc1c(O[C@@H]2O[C@H](CO)[C@@H](O)[C@H](O)[C@H]2O)cc2c(c1OC)-c1ccc(SC)c(=O)cc1[C@@H](NC(C)=O)CC2 [THIOCOLCHICOSIDE] | > 133 |  |  |  |
| CN1C(=O)CN=C(c2ccccc2)c2cc(Cl)ccc21 [DIAZEPAM] | > 133 | > 133 | > 133 |  |
| Nc1nnc(-c2cccc(Cl)c2Cl)c(N)n1 [LAMOTRIGINE] | > 133 |  |  |  |
| OC[C@H]1O[C@@H](n2cnc3c2NC=NC[C@H]3O)C[C@@H]1O [PENTOSTATIN] | > 133 |  |  |  |
| CC(C)(S)[C@@H](N)C(=O)O [PENICILLAMINE] | > 133 |  |  |  |
| COc1cccc([C@]2(O)CCCC[C@H]2CN(C)C)c1 | > 133 |  |  |  |
| N#Cc1ccc(C(c2ccc(C#N)cc2)n2cncn2)cc1 [LETROZOLE] | > 133 |  |  |  |
| COCCCC/C(=N\OCCN)c1ccc(C(F)(F)F)cc1 [FLUVOXAMINE MALEATE] |  | > 133 | > 133 | > 133 |
| NS(=O)(=O)c1cc(C(=O)O)c(NCc2ccco2)cc1Cl [FUROSEMIDE] |  | > 133 | > 133 | > 133 |
| C=C(c1ccc(C(=O)O)cc1)c1cc2c(cc1C)C(C)(C)CCC2(C)C [BEXAROTENE] |  | > 133 | > 133 | > 133 |
| CC[C@H]1OC(=O)[C@H](C)[C@@H](O[C@H]2C[C@@](C)(OC)[C@@H](O)[C@H](C)O2)[C@H](C)[C@@H](O[C@@H]2O[C@H](C)C[C@H](N(C)C)[C@H]2O)[C@](C)(O)C[C@@H](C)C(=O)[C@H](C)[C@@H](O)[C@]1(C)O |  | > 133 | 68.2 | > 133 |
| N#C[C@@H]1C[C@@H]2C[C@@H]2N1C(=O)[C@@H](N)C12CC3CC(CC(O)(C3)C1)C2 [SAXAGLIPTIN HYDROCHLORIDE] |  | > 133 | > 133 | > 133 |
| CC/C(=C(\c1ccccc1)c1ccc(OCCN(C)C)cc1)c1ccccc1 [TAMOXIFEN] |  | > 133 | > 133 | > 133 |
| C[C@]12C=CC(=O)C=C1CC[C@@H]1[C@@H]2[C@@H](O)C[C@@]2(C)[C@H]1CC[C@]2(O)C(=O)CO [PREDNISOLONE] |  | > 133 | > 133 | > 133 |
| Cc1nc2n(c(=O)c1CCN1CCC(c3noc4cc(F)ccc34)CC1)CCCC2 [RISPERIDONE] |  | > 133 | > 133 | > 133 |
| CC(C)(C)NCC(O)c1ccc(O)c(CO)c1 (stereo not drawn) [ALBUTEROL] |  | > 133 | > 133 | > 133 |
| O=C(O)[C@H]1/C(=C/CO)O[C@@H]2CC(=O)N21 [CLAVULANATE POTASSIUM] | > 133 |  |  |  |
| CCCCC[C@H](O)/C=C/[C@H]1[C@H](O)CC(=O)[C@@H]1CCCCCCC(=O)O [ALPROSTADIL] |  | 26.9 | 2.3 | > 133 |
| Clc1ccccc1CN1CCc2sccc2C1 [TICLOPIDINE HYDROCHLORIDE] |  | > 133 | > 133 | > 133 |
| CN(C)CCCN1c2ccccc2CCc2ccc(Cl)cc21 [CLOMIPRAMINE] |  | > 133 | > 133 | > 133 |
| CC(C)NCC(O)COc1cccc2[nH]ccc12 (stereo not drawn) [PINDOLOL] |  | > 133 | > 133 | > 133 |

| SMILES | IC50 [1] [µM] | IC50 [2] [µM] | IC50 [3] [µM] | IC50 [4] [µM] |
| --- | --- | --- | --- | --- |
| OC(CCN1CCCC1)(c1ccccc1)C1CCCCC1 (stereo not drawn) [PROCYCLIDINE] |  | > 133 | > 133 | > 133 |
| O=C(O)c1cn(C2CC2)c2cc(N3CCNCC3)c(F)cc2c1=O [CIPROFLOXACIN] |  | > 133 | > 133 | > 133 |
| Sc1ncnc2nc[nH]c12 [MERCAPTOPURINE ANHYDROUS] | > 133 |  |  |  |
| Cc1ccc(O)c([C@H](CCN(C(C)C)C(C)C)c2ccccc2)c1 [TOLTERODINE TARTRATE] |  | > 133 | > 133 | > 133 |
| COCCOC(=O)C1=C(C)NC(C)=C(C(=O)OC(C)C)C1c1cccc([N+](=O)[O-])c1 (stereo not drawn) [NIMODIPINE] |  | > 133 | > 133 | > 133 |
| COc1cc2nc(N(C)CCCNC(=O)C3CCCO3)nc(N)c2cc1OC (stereo not drawn) [ALFUZOSIN HYDROCHLORIDE] | > 133 |  |  |  |
| O=C1CN(/N=C/c2ccc([N+](=O)[O-])o2)C(=O)N1 [NITROFURANTOIN] |  | > 133 | 20.9 | > 133 |
| CCN(CC)CCNC(=O)c1ccc(N)cc1 [PROCAINAMIDE] |  | > 133 | > 133 | > 133 |
| CCN(CC)CC(=O)Nc1c(C)cccc1C [LIDOCAINE] |  | > 133 | > 133 | > 133 |
| COCCCOc1cc(C[C@@H](C[C@H](N)[C@@H](O)C[C@H](C(=O)NCC(C)(C)C(N)=O)C(C)C)C(C)C)ccc1OC [ALISKIREN FUMARATE] | > 133 |  |  |  |
| Nc1cc(N2CCCCC2)nc(N)[n+]1[O-] [MINOXIDIL] |  | > 133 | > 133 | > 133 |
| NC(=O)NO [HYDROXYUREA] |  | > 133 | > 133 | > 133 |
| CCN(CC)CCNC(=O)c1c(C)[nH]c(/C=C2\C(=O)Nc3ccc(F)cc32)c1C |  | > 133 | > 133 | > 133 |
| Cc1ccc(Nc2c(F)cccc2Cl)c(CC(=O)O)c1 [LUMIRACOXIB] |  | > 133 | > 133 | > 133 |
| COCCc1ccc(OCC(O)CNC(C)C)cc1 (stereo not drawn) [METOPROLOL] |  | > 133 | > 133 | > 133 |
| CN1CCN2c3ncccc3Cc3ccccc3C2C1 (stereo not drawn) [MIRTAZAPINE] |  | > 133 | > 133 | > 133 |
| Nc1ccn([C@@H]2O[C@H](CO)[C@@H](O)[C@@H]2O)c(=O)n1 [CYTARABINE] |  | > 133 | > 133 | > 133 |
| CCN(CC)C(=S)SSC(=S)N(CC)CC |  | > 133 | > 133 | > 133 |
| Cn1cc[nH]c1=S [METHIMAZOLE] |  | > 133 | > 133 | > 133 |
| CN(C)[C@@H]1C(O)=C(C(N)=O)C(=O)[C@@]2(O)C(O)=C3C(=O)c4c(O)cccc4[C@@](C)(O)[C@H]3C[C@@H]12 [TETRACYCLINE] |  | > 133 | > 133 | > 133 |
| COc1cc2c(c(OC)c1OC)-c1ccc(OC)c(=O)cc1[C@@H](NC(C)=O)CC2 [COLCHICINE] |  | > 133 | > 133 | > 133 |
| CN1CCN(CCCN2c3ccccc3Sc3ccc(Cl)cc32)CC1 [PROCHLORPERAZINE] |  | > 133 | > 133 | > 133 |
| CNC(=C[N+](=O)[O-])NCCSCc1ccc(CN(C)C)o1 [RANITIDINE] |  | > 133 | > 133 | > 133 |
| CN(C)CC[C@@H](c1ccc(Br)cc1)c1ccccn1 [DEXBROMPHENIRAMINE MALEATE] |  | > 133 | > 133 | > 133 |
| Nc1ccn([C@@H]2CS[C@H](CO)O2)c(=O)n1 [LAMIVUDINE] |  | > 133 | > 133 | > 133 |

— ChEMBL document CHEMBL4028801, “A multifactorial approach to hepatobiliary transporter assessment enables improved therapeutic compound development” (Toxicol Sci, 2013)
